Measurements reported in PMC6437697 (Journal of Medicinal Chemistry, 2019).

What was measured:
Assay in all cases: KINOMEscan
Format in all cases: binding
Details in all cases: read-out: % control activity remaining
LYN = molecular target: T1, LYN (Homo sapiens, UniProt P07948)
T1 construct: purchased Eurofins DiscoverX KINOMEscan

RET(V804L) = molecular target: T2, RET(V804L) (Homo sapiens, UniProt P07949, V804L)
T2 construct: purchased Eurofins DiscoverX KINOMEscan

NEK3 = molecular target: T3, NEK3 (Homo sapiens, UniProt P51956)
T3 construct: purchased Eurofins DiscoverX KINOMEscan
T3 sequence (P51956 1-506): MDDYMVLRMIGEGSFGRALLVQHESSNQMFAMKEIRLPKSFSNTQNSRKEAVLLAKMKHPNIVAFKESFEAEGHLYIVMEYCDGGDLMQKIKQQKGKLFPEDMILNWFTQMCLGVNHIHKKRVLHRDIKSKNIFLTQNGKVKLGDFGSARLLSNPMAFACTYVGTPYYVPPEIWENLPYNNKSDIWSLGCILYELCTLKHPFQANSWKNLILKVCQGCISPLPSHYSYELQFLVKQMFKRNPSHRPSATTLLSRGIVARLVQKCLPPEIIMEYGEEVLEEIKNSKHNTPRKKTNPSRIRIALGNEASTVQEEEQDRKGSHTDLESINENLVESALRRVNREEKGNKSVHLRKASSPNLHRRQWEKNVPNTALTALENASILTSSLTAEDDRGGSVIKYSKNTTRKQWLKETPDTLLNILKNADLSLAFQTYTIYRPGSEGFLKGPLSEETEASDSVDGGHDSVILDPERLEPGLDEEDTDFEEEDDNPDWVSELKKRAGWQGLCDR

FLT3(N841I) = molecular target: T4, FLT3(N841I) (Homo sapiens, UniProt P36888, N841I)
T4 construct: purchased Eurofins DiscoverX KINOMEscan
T4 sequence (P36888 27-993 N841I): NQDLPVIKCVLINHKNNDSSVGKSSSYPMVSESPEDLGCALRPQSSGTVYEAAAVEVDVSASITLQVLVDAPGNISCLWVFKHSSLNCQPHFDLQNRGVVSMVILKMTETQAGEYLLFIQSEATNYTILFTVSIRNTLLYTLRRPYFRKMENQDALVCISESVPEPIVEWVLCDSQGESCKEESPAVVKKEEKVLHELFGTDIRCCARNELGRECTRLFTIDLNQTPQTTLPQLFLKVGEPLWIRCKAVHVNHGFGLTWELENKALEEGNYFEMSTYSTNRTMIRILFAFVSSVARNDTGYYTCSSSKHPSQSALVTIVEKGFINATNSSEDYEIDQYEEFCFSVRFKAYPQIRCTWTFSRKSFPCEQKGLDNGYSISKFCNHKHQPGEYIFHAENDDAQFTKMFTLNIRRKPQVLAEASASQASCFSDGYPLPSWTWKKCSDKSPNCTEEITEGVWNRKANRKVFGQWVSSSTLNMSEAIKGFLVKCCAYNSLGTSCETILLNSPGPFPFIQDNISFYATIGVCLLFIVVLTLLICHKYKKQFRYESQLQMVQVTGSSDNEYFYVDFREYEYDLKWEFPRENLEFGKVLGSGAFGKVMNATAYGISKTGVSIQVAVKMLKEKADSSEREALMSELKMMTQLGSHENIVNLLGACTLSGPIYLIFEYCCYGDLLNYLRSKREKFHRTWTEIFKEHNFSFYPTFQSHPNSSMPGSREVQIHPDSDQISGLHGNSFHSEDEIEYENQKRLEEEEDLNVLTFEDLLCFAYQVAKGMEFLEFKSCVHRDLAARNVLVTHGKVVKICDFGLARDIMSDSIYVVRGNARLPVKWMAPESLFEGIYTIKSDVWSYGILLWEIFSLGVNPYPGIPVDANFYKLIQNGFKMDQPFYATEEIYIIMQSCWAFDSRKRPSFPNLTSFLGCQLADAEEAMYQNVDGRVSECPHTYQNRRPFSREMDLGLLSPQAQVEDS

EPHA5 = molecular target: T5, EPHA5 (Homo sapiens, UniProt P54756)
T5 construct: purchased Eurofins DiscoverX KINOMEscan
T5 sequence (P54756 25-1037): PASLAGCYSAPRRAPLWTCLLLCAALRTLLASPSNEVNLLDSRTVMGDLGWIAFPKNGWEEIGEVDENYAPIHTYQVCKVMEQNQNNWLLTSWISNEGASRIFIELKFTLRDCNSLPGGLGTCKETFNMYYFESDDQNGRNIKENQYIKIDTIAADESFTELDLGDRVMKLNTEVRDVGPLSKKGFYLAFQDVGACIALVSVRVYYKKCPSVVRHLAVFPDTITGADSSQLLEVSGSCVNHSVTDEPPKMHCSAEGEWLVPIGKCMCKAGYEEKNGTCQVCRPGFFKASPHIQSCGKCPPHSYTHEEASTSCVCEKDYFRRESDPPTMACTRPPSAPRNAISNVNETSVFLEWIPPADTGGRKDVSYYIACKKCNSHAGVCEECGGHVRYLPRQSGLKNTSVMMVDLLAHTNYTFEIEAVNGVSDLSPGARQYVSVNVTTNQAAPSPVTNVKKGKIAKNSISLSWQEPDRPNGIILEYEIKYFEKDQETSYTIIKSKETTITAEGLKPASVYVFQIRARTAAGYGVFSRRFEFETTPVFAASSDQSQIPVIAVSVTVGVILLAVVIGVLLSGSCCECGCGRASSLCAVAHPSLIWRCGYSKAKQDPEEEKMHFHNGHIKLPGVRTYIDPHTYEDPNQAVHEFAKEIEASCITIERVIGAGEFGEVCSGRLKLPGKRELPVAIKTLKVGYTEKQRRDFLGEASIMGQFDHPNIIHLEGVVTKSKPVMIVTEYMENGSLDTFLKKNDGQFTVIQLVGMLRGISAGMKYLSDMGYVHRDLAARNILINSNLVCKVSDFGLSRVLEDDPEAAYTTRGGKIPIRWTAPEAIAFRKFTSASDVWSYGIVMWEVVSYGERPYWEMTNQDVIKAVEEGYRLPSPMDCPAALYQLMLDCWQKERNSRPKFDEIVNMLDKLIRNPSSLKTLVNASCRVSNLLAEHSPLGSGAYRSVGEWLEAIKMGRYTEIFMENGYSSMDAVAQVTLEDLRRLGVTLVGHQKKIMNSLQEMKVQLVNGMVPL

MLK2 = molecular target: T6, MLK2 (Homo sapiens, UniProt Q02779)
T6 construct: purchased Eurofins DiscoverX KINOMEscan
T6 sequence (Q02779 whole entry): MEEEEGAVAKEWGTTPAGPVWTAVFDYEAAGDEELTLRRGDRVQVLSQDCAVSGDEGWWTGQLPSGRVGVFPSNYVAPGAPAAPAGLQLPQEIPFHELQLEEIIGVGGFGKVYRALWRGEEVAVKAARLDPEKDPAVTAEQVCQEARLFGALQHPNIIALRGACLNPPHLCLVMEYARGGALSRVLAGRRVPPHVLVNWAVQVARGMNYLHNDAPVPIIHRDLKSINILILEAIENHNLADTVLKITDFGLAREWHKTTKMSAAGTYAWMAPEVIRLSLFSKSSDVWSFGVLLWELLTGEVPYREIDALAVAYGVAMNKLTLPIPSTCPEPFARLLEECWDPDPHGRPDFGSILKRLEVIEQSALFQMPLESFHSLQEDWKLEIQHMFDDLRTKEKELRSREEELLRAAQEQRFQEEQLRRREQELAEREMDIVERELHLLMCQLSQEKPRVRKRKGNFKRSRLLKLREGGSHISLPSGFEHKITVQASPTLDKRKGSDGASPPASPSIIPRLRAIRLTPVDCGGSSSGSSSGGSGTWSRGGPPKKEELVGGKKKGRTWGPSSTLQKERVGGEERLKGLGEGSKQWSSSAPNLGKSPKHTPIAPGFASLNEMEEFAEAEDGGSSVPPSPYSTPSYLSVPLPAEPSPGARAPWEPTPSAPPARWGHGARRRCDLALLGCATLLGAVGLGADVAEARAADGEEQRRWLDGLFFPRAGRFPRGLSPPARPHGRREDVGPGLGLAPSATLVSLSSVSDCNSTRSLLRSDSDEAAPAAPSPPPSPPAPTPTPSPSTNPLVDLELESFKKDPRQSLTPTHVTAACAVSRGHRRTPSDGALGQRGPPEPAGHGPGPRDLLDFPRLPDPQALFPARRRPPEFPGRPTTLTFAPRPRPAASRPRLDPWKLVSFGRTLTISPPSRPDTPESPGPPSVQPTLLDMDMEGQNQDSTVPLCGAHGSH

PFTAIRE2 = molecular target: T7, PFTAIRE2 (Homo sapiens, UniProt Q96Q40)
T7 construct: purchased Eurofins DiscoverX KINOMEscan
T7 sequence (Q96Q40 whole entry): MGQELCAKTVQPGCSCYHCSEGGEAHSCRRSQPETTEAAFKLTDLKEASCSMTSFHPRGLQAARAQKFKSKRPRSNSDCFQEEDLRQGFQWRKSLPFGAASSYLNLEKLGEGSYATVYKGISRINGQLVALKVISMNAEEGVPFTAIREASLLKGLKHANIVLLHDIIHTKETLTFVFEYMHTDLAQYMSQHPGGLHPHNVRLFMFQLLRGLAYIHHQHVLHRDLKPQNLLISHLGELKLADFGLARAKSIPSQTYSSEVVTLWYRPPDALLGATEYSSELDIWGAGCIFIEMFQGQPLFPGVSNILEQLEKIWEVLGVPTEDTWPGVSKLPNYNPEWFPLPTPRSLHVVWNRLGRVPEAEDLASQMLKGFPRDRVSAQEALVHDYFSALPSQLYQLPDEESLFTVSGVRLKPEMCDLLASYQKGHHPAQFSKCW

PCTK3 = molecular target: T8, PCTK3 (Homo sapiens, UniProt Q07002)
T8 construct: purchased Eurofins DiscoverX KINOMEscan
T8 sequence (Q07002 whole entry): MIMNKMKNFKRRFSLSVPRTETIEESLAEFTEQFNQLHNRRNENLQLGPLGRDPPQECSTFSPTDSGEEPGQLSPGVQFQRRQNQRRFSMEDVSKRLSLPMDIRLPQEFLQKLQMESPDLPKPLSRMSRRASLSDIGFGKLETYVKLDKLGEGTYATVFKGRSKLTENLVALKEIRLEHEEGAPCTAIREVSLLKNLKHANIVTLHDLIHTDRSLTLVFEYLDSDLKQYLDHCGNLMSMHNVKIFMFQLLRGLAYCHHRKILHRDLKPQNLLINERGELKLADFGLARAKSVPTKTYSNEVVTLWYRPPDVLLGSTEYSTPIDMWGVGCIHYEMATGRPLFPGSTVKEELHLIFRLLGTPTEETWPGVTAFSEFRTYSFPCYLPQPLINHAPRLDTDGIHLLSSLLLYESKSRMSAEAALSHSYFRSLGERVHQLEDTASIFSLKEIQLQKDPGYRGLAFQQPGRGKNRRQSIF

PRKG2 = molecular target: T9, PRKG2 (Homo sapiens, UniProt Q13237)
T9 construct: purchased Eurofins DiscoverX KINOMEscan
T9 sequence (Q13237 1-762): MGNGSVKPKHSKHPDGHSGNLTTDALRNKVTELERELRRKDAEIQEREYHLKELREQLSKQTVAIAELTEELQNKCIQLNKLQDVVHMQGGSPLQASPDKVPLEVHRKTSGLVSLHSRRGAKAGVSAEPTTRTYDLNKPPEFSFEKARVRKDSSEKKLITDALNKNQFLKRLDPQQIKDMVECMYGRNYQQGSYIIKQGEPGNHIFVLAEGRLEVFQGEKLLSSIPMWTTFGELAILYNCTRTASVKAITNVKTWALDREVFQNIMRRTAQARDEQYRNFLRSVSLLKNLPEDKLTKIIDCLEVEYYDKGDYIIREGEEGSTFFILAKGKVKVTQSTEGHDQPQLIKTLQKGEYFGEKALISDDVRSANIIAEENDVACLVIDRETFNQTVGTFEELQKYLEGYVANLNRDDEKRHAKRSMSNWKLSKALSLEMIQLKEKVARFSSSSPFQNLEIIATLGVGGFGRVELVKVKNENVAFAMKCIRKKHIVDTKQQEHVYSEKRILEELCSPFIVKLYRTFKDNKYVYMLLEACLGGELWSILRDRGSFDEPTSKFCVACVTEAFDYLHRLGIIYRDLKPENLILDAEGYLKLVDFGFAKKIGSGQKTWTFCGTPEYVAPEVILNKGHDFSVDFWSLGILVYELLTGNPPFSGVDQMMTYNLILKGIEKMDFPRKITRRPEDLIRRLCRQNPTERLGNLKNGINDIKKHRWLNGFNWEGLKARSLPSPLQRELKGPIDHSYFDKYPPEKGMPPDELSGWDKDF

T2 sequence (P07949 29-1114 V804L): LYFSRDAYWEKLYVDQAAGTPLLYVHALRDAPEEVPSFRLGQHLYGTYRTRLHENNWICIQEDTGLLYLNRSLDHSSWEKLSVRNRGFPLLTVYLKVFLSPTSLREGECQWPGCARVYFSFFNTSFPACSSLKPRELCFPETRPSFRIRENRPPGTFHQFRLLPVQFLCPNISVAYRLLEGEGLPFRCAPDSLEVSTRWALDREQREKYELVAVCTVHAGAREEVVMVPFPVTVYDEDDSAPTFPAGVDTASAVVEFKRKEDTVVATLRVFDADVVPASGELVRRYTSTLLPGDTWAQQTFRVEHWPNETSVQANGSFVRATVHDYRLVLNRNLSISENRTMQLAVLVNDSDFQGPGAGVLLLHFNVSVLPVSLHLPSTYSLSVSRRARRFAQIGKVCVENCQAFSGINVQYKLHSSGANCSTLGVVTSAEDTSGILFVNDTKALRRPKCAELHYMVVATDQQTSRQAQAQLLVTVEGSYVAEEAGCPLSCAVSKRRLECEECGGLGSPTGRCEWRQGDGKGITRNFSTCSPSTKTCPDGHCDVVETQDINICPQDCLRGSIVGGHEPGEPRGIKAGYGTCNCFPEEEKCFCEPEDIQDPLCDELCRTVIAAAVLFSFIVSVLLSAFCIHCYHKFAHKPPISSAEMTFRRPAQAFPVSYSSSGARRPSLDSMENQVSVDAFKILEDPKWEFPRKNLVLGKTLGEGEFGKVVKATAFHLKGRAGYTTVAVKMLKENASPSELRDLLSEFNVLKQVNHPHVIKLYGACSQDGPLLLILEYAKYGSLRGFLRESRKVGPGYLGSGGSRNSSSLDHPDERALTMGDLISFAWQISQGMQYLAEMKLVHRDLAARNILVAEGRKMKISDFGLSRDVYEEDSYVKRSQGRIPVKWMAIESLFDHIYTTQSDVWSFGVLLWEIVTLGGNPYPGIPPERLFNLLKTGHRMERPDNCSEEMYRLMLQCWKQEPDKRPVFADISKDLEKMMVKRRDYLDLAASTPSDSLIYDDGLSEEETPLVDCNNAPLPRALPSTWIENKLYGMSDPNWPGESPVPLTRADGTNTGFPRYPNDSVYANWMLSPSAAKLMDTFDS
T1 sequence (P07948 whole entry): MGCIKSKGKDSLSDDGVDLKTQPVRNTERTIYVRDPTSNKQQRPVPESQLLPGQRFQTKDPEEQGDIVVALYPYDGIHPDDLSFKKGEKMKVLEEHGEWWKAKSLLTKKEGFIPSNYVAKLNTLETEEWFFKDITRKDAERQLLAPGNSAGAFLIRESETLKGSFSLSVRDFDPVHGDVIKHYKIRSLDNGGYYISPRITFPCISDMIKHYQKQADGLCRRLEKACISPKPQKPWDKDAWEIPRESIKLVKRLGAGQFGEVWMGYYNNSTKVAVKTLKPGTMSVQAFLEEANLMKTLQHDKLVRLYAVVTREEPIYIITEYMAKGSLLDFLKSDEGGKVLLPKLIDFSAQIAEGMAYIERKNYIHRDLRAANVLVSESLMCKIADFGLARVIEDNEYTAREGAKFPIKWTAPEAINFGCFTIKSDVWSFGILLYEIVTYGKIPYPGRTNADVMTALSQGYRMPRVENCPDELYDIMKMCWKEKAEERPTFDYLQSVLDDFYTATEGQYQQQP

Structure (SMILES) | remaining binding at 1 µM (LYN) | remaining binding at 1 µM (RET(V804L)) | remaining binding at 1 µM (NEK3) | remaining binding at 1 µM (FLT3(N841I)) | remaining binding at 1 µM (EPHA5) | remaining binding at 1 µM (MLK2) | remaining binding at 1 µM (PFTAIRE2) | remaining binding at 1 µM (PCTK3) | remaining binding at 1 µM (PRKG2)
Clc1cc(NCC2CC2)c2ncc(-c3ccc4[nH]ncc4c3)n2n1 [compound 2, 6-Chloro-N-(cyclopropylmethyl)-3-(1H-indazol-5-yl)imidazo[1,2-b]pyridazin-8-amine] | 92% | 100% | 93% | 7.5% | 99% | 100% | 100% | 79% | 84%
O=C(CN1CCOCC1)N[C@H]1CC[C@H](Nc2cc(Cl)nn3c(-c4ccc5[nH]ncc5c4)cnc23)CC1 [compound 26] | 96% | 88% | 88% | 0% | 93% | 92% | 40% | 80% | 64%
CN1CCC(CNc2cc(Cl)nn3c(-c4cc5nc(Nc6ccccc6)[nH]c5cc4F)cnc23)CC1 [compound 31, 6-Chloro-3-(6-fluoro-2-(phenylamino)-1H-benzo[d]imidazol-5-yl)-N-((1-methylpiperidin-4-yl)methyl)imidazo[1,2-b]pyridazin-8-amine] | 95% | 92% | 100% | 96% | 99% | 88% | 91% | 88% | 64%
